Results on 7 molecules are retold here after patent publication US4613355A, “Antibiotic having herbicidal activity” (Satoshi Omura, priority 1983, dated 1986).

The subject of one series is Rumex obtusifolius. Put plainly: Foliage treatment with different salts (Example 11). Format: in vivo. On the set-up: key: 0 indicates no effect; 5 indicates complete kill. The settings on record: Rumex obtusifolius (Plant No. 14), 1000 liter per hectare. The procedure: Aqueous solutions containing different salts of Phosalacine at different concentrations as active ingredients and 0.1% of octylphenylpolyoxy ethanol as surfactant were applied at a rate of 1000 liter per hectare to Rumex obtusifolius (Plant No. 14) at a certain stage of growth. 21 days after foliage treatment, damage to the plant was visually assessed on a scale of 0 to 5 as hereinbefore described. The salts used were prepared by the methods described in the reference mentioned above.

The test system of series [1] is Klebsiella pneumoniae KB214. In words: MIC by agar dilution method. Format: cell-based. Particulars: medium A Davis's minimal medium (pH 7.0). Background: In agar dilution, organisms are placed on agar that contains the substance at set levels.
In the next series the test system is Erwinia aroideae KB148. Put plainly: MIC by agar dilution method. The format is cell-based. Particulars: medium A Davis's minimal medium (pH 7.0).
The next series has as its system Piricularia oryzae KF180. The format is cell-based. Particulars: medium B Dextrose Czapek' medium.
Series [2] has as its system Staphylococcus aureus KB199. Put plainly: MIC by agar dilution method. The format is cell-based. The settings on record: medium A Davis's minimal medium (pH 7.0).
The subject of another series is Mucor racemosus KF223. In words: MIC by agar dilution method. Format: cell-based. Particulars: medium B Dextrose Czapek' medium.
Another series has as its system Chamaecyparis obtusa. Put plainly: Foliage treatment of woody plants (Example 10). Format: in vivo. The settings on record: even when applied at a concentration of 0.5%. An excerpt: (§1) Aqueous solutions containing Phosalacine (Na salt) at different concentrations and 0.1% of octylphenylpolyoxy ethanol as surfactant were applied at a rate of 1500 liter per hectare to woody plants of about 60-70 cm in height. 7 and 14 days after the foliage treatment, damage to the plants was visually assessed on a scale of from 0 to 5 (cf. Example 7).

The next series has as its system Cryptomeria japonica. Put plainly: Foliage treatment of woody plants (Example 10). Format: in vivo. Particulars: in vivo.
Source text: as §1

Series [3] is described as follows: Physico-chemical characteristics: acid/base nature. Format: physicochemical.
The subject of a further series is Bacillus subtilis KB211. In words: MIC by agar dilution method. Format: cell-based.
The test system of the next series is Candida albicans KFl. Put plainly: MIC by agar dilution method. Particulars: medium B Dextrose Czapek' medium. The format is cell-based.
The nature of series [4]: Acute toxicity in mice per os, body weight (Example 14). Format: in vivo, Mice ICR (RJ) strain. Particulars: for Body weight: 500 mg/kg per os. The procedure:
Mice [ICR (RJ) strain; female; 6 weeks after birth; each group consisting of 10 mice] were used as test animals to investigate the acute toxity of Phosalacine in mice. A 1% aqueous solution (free acid) was forcibly administered per os to each animal and the body weight of each animal was measured 7 and 14 days after administration. Separately, a similar test was effected by administering Phosalacine (free acid) at a dose of 100 mg/kg.

In a further series the test system is Killifishes (Medaka). In words: Acute toxicity to fish, survival ratio (Example 13). Format: in vivo. Particulars: for Survival ratio (%): killifish, 100 ppm. The procedure: Killifishes (Japanese name, Medaka), were obtained from a market and maintained in a water bath at 25±2° C. for a week. Then the fishes (each group consisting of 10 fishes) were placed in water baths containing the test compounds at given concentrations as shown in the following Table. 24 and 48 hours after this, the survival ratio (%) of each group was visually counted to assess the acute toxity.

The subject of a further series is Aspergillus niger KF105. Put plainly: MIC by agar dilution method. Particulars: medium B Dextrose Czapek' medium. Format: cell-based.
The next series concerns Proteus vulgaris KB127. Put plainly: MIC by agar dilution method. Format: cell-based. Particulars: medium A Davis's minimal medium (pH 7.0).
For a further series, the system named is Bacillus cereus KB143. Put plainly: MIC by agar dilution method. The format is cell-based. Particulars: medium A Davis's minimal medium (pH 7.0).
The next series relates to Micrococcus luteus KB212. In words: MIC by agar dilution method. The format is cell-based. Particulars: medium A Davis's minimal medium (pH 7.0).
The subject of the next series is various plants. Put plainly: Inhibition of regrowth one month after foliage treatment (Example 8). Particulars: visually assessed, compared with SF-1293. Format: in vivo. The procedure: Aqueous solutions of Phosalacine (Na salt) at different concentrations were applied at a rate of 1500 liters per hectare to naturally occurring plants or plants which were cultured on plates as shown in the following Table at certain stages of growth. The Phosalacine applied contained 0.1% of octylphenylpolyoxy ethanol as surfactant. 7 and 14 days after the foliage treatment, damage to the plants was visually assessed on a scale of from 0 to 5 where 0 indicates no effect and 5 indicates complete kill. […] One month after the foliage treatment, the inhibition of regrowth of the plants was visually investigated.
One month after the foliage treatment, the inhibition of regrowth of the plants was visually assessed.

Another series deals with Escherichia coli KB213. Put plainly: MIC by agar dilution method. The format is cell-based. Particulars: medium A Davis's minimal medium (pH 7.0). An excerpt:
The minimum inhibitory concentrations (MIC values) of Phosalacine were investigated in conventional manner by the agar dilution method and the results are indicated in the following Table, from which it is apparent that Phosalacine is active against various Gram-positive and Gram-negative bacteria and fungi.
[Notes: A . . . Davis's minimal medium (pH 7.0), B . . . Dextrose Czapek'

Series [5] deals with Staphylococcus aureus KB210. In words: MIC by agar dilution method. Format: cell-based. The settings on record: medium A Davis's minimal medium (pH 7.0).
A further series relates to Escherichia coli KB176. In words: MIC by agar dilution method. Format: cell-based. Particulars: medium A Davis's minimal medium (pH 7.0).
Another series concerns Digitaria adscendens. Put plainly: Foliage treatment of seedlings in pots (Example 7). The format is in vivo. Particulars: 10 days after foliage treatment, 1000 liter per hectare. The procedure:
Upland soil was put in a pot of 10 cm diameter and the seeds of Digitaria adscendens were sown in the soil at a depth of 1 cm from the surface. When the height of the seedlings was about 10 cm, aqueous solutions of the test compounds as shown in the following Table were uniformly sprayed on the plants at a rate of 1.2 ml per plant, equivalent to 1000 liter per hectare. 10 days after the foliage treatment, damage to plants was visually assessed on a scale of from 0 to 10, where 0 indicates no effect and 10 indicates complete kill.

Converted amounts (≈) assume the structure as drawn.

`CC(C)CC(NC(=O)C(C)NC(=O)C(N)CCP(C)(=O)[O-])C(=O)[O-].[Na+].[Na+]` (centres unmarked) [Di Na salt]: the “Damage to plants after 21 days, scale 0 to 5” value (shortened to “Damage to plants after 21 days”) in the series on Rumex obtusifolius (0.05%) is recorded as 3; in the series with Rumex obtusifolius (0.1%), 5.
Taken in the same sequence, the figures for `CC(C)CC(NC(=O)C(C)NC(=O)C(N)CCP(C)(=O)[O-])C(=O)[O-].[K+].[K+]` (centres unmarked) [Di Ka salt] were 3 and 5.
For orientation: MIC means the least concentration at which growth counts as inhibited. As for `CC(C)C[C@H](NC(=O)[C@H](C)NC(=O)[C@@H](N)CCP(C)(=O)O)C(=O)O` [Phosalacine, phosphinothricyl-alanyl leucine], the MIC was 25 µg/mL (≈ 68.4 µM) in series [1]; less than 0.05 µg/mL with Erwinia aroideae KB148; 0.1 µg/mL (≈ 0.274 µM) with Piricularia oryzae KF180; 0.2 µg/mL (≈ 0.547 µM) in series [2]; 6.25 µg/mL (≈ 17.1 µM) against Mucor racemosus KF223; 0.4 µg/mL (≈ 1.09 µM) in the series on Bacillus subtilis KB211 (Bacillus subtilis KB211, medium A Davis's minimal medium (pH 7.0)). Also, the minimal inhibitory concentration (MIC) with Candida albicans KFl was greater than 100 µg/mL; against Aspergillus niger KF105, greater than 100 µg/mL; in the series with Proteus vulgaris KB127, 25 µg/mL (≈ 68.4 µM); against Bacillus cereus KB143, 0.4 µg/mL (≈ 1.09 µM); against Micrococcus luteus KB212, 6.25 µg/mL (≈ 17.1 µM); in the series with Escherichia coli KB213, 12.5 µg/mL (≈ 34.2 µM). For the same molecule, the MIC was determined as 0.4 µg/mL (≈ 1.09 µM) in series [5] and 25 µg/mL (≈ 68.4 µM) in the series on Escherichia coli KB176. The “herbicidal activity against Chamaecyparis obtusa” value in the series on Chamaecyparis obtusa is given as “not herbicidally active”. In addition, the “herbicidal activity against Cryptomeria japonica” value in the series on Cryptomeria japonica is recorded as “relatively low herbicidal activity”. Also, in series [3], the Acid/base nature entry was “Amphoteric”. For the same molecule, the “Effect of glutamine on activity against Bacillus subtilis” value in the series with Bacillus subtilis KB211 (synthetic media) was “competitively antagonised by glutamine”. Besides, the figures for the “Body weight” value in series [4] (After 0 days), in series [4] (After 7 days) and in series [4] (After 14 days) were 23.9 g, 24.5 g and 26.2 g, respectively. Moreover, the “change of body weight” value in series [4] (dose of 100 mg/kg) was “No significant change of body weight”. Moreover, the “acute toxity to mice” value in series [4] (per os) was “very low”. Further, the “acute toxity against fish, comparison” value with Killifishes (Medaka) (fish) was “less than that of glyphosate and SF-1293”. For the same molecule, the “inhibition of regrowth of the plants” value in the series on various plants is listed as “equal or superior to that of SF-1293”.
In the case of `CPCC[C@H](N)C(=O)O` (stereo partly drawn) [L-2-amino-4-methylphosphino butyric acid, reference compound], the “Survival ratio (%)” value in the series on Killifishes (Medaka) (24 hours) and in the series with Killifishes (Medaka) (48 hours) was 0% each time.
As for `CC(C)CC(NC(=O)C(C)NC(=O)C(N)CCP(C)(=O)O)C(=O)O.CC(C)N` (centres unmarked) [Mono isopropylamine salt], the “Damage to plants after 21 days” value came out at 3 with Rumex obtusifolius (0.05%) and 5 with Rumex obtusifolius (0.1%).
Turning to `CC(C)C[C@H](NC(=O)[C@H](C)NC(=O)[C@@H](N)CCP(C)(=O)O)C(=O)O.CCNCC` [monodiethylamine salt], the “damage to plants, scale 0 to 10” value is 5 (50) with Digitaria adscendens (Concentration 0.01 ppm), 10 (100) in the series with Digitaria adscendens (Concentration 0.03 ppm) and 10 (100) in the series on Digitaria adscendens (Concentration 0.1 ppm).
Regarding `CC(C)CC(NC(=O)C(C)NC(=O)C(N)CCP(C)(=O)O)C(=O)O.CCCCN` (centres unmarked) [Mono n-butylamine salt], the figures for the “Damage to plants after 21 days” value with Rumex obtusifolius (0.05%) and in the series with Rumex obtusifolius (0.1%) were 3 and 5, respectively.
